Measurements as given in ChEMBL document CHEMBL4376834, “Discovery of 4H-Chromen-4-one Derivatives as a New Class of Selective Rho Kinase (ROCK) Inhibitors, which Showed Potent Activity in ex Vivo Diabetic Retinopathy Models” (J Med Chem, 2019).

Assays:
[1] = molecular target: Hepatocyte growth factor receptor (Homo sapiens, UniProt P08581, Y1230D); assay: Inhibition of recombinant human MET A1209G/V1290L/Y1248D triple mutant (974 to end residues) using KKKGQEEEYVFIE as substrate incubated for 40 mins in presence of [gamma-33ATP by radiometric scintillation counting analysis
[2] = molecular target: Protein kinase C alpha type (Homo sapiens, UniProt P17252); assay: Inhibition of recombinant human full length PKCalpha using histone as substrate incubated for 40 mins in presence of [gamma33P]ATP by radiometric scintillation counting analysis
[3] = n-Octanol-water partition coefficient, logD of compound at 1 mg measured after 48 hrs under shaking condition by LC-MS analysis; type: physicochemical
[4] = molecular target: Mitogen-activated protein kinase 12 (Homo sapiens, UniProt P53778); assay: Inhibition of recombinant human full length SAPK3 using myelin basic protein as substrate incubated for 40 mins in presence of [gamma33P]ATP by radiometric scintillation counting analysis
[5] = Inhibition of human recombinant full length AURORA-A I31F mutant using kemptide as substrate incubated for 40 mins in presence of [gamma-33P]ATPand 10 uM ATP by radiometric scintillation counting analysis
[6] = Inhibition of recombinant human PAK2 L150F/P225T/A339 deletion/V383I mutant (3 to end residues) using KEAKEKRQEQIAKR as substrate incubated for 40 mins in presence of [gamma33P]ATP by radiometric scintillation counting analysis
[7] = molecular target: Serine/threonine-protein kinase VRK2 (Homo sapiens, UniProt Q86Y07); assay: Inhibition of recombinant human VRK2 (1 to 336 residues) using casein as substrate incubated for 40 mins in presence of [gamma33P]ATP by radiometric scintillation counting analysis
[8] = molecular target: Phosphorylase b kinase gamma catalytic chain, skeletal muscle/heart isoform (Homo sapiens, UniProt Q16816); assay: Inhibition of recombinant full-length human PhKgamma1 using KKLNRTLSFAEPG as substrate incubated for 40 mins in presence of [gamma33P]ATP by radiometric scintillation counting analysis
Chain of Phosphorylase b kinase gamma catalytic chain, skeletal muscle/heart isoform (Q16816 whole entry, canonical isoform): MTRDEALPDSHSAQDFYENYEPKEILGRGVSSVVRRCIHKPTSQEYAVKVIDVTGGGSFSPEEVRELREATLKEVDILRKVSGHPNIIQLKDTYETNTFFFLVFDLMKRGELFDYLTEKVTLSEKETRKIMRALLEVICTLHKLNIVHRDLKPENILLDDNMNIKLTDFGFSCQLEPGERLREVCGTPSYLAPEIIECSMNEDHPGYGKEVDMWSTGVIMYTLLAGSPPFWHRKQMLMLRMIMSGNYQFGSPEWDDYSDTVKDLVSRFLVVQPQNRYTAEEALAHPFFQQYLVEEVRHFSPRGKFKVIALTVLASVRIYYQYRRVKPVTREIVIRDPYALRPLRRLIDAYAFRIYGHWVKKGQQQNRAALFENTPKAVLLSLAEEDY

[9] = molecular target: Serine/threonine-protein kinase DCLK3 (Homo sapiens, UniProt Q9C098); assay: Inhibition of recombinant human DCAMKL3 (345 to end residues) using KKLNRTLSFAEPG as substrate after 40 mins in presence of [gamma-33ATP] by radiometric scintillation counting analysis
[10] = molecular target: Glycogen synthase kinase-3 beta (Homo sapiens, UniProt P49841); assay: Inhibition of human GSK-3beta H350L mutant (2 to end residues) using YRRAAVPPSPSLSR as substrate after 40 mins by [gamma-33ATP] radiometric assay
[11] = molecular target: cGMP-dependent protein kinase 1 (Homo sapiens, UniProt Q13976); assay: Inhibition of recombinant full length human PKG1beta using RRRLSFAEPG as substrate incubated for 40 mins in presence of [gamma-33P]ATP by radiometric scintillation counting analysis
Chain of cGMP-dependent protein kinase 1 (Q13976 whole entry): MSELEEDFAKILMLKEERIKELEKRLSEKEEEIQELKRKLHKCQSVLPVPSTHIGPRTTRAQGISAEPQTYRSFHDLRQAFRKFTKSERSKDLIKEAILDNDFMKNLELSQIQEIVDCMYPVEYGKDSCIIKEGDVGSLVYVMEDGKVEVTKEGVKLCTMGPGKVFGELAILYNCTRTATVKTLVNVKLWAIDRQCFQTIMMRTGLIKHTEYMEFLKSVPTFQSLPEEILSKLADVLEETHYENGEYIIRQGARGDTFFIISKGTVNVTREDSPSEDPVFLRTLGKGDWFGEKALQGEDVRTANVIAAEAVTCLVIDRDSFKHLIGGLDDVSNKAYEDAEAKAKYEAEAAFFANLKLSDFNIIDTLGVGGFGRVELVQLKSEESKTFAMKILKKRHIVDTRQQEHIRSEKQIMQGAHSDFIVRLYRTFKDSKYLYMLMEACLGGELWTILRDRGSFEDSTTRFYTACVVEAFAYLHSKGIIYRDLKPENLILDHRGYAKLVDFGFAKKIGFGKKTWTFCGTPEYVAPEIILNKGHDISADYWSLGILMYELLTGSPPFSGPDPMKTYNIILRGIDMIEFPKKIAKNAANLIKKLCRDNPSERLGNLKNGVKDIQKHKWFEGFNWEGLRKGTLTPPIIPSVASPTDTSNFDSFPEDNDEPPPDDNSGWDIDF

[12] = Inhibition of recombinant human TIE2 Q939H/Q940H/Y897S triple mutant (771 to end residues) using EFPIYDFLPAKKK as substrate incubated for 40 mins in presence of [gamma33P]ATP by radiometric scintillation counting analysis
[13] = molecular target: Serine/threonine-protein kinase SBK1 (Homo sapiens, UniProt Q52WX2); assay: Inhibition of recombinant full-length human SBK1 using KKLRRTLSVA as substrate incubated for 120 mins in presence of [gamma33P]ATP by radiometric scintillation counting analysis
Chain of Serine/threonine-protein kinase SBK1 (Q52WX2 whole entry): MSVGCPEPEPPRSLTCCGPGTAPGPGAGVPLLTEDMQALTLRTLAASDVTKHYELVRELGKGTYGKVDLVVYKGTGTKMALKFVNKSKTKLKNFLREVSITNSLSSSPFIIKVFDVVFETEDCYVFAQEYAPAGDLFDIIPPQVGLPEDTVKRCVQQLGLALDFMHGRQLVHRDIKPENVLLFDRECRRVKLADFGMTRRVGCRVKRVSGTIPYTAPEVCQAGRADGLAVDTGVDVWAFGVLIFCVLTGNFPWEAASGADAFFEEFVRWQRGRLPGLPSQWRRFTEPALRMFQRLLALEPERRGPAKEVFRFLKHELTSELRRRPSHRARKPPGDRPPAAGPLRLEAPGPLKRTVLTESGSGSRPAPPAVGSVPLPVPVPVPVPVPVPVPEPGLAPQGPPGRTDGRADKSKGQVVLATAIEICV

[14] = Inhibition of recombinant human Ros V2262A mutant (1883 to end residues) using KKKSPGEYVNIEFG as substrate incubated for 40 mins in presence of [gamma33P]ATP by radiometric scintillation counting analysis
[15] = molecular target: Calcium/calmodulin-dependent protein kinase type II subunit alpha (Homo sapiens, UniProt Q9UQM7); assay: Inhibition of recombinant full length human CaMK2alpha using KKLNRTLSFAEPG as substrate incubated for 40 mins in presence of [gamma-33ATP] by radiometric scintillation counting analysis
Chain of Calcium/calmodulin-dependent protein kinase type II subunit alpha (Q9UQM7 whole entry, the tested form may be a part): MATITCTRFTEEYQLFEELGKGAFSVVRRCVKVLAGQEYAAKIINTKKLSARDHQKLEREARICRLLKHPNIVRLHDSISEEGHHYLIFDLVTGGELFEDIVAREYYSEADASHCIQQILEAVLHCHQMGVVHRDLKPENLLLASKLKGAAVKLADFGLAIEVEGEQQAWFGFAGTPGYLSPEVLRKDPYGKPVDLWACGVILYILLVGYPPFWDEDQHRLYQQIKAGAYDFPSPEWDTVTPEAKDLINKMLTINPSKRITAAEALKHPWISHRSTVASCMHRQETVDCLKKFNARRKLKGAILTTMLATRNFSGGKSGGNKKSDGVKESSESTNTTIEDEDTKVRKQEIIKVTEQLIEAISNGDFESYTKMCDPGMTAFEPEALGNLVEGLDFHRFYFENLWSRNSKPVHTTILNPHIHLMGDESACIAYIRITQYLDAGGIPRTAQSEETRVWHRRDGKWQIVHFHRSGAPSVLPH

[16] = molecular target: Fibroblast growth factor receptor 4 (Homo sapiens, UniProt P22455); assay: Inhibition of recombinant human FGFR4 (442 to 755 residues) using poly(Glu, Tyr) 4:1 as substrate after 40 mins in presence of [gamma-33ATP] by radiometric scintillation counting analysis
[17] = molecular target: Cyclin-dependent kinase 1/cyclin B1 (Homo sapiens, UniProt P06493); assay: Inhibition of recombinant full length human CDK1/CyclinB using Histone H1 as substrate incubated for 40 mins in presence of [gamma-33ATP] by radiometric scintillation counting analysis; type: protein-complex assay
Chain of Cyclin-dependent kinase 1/cyclin B1 (P06493 whole entry): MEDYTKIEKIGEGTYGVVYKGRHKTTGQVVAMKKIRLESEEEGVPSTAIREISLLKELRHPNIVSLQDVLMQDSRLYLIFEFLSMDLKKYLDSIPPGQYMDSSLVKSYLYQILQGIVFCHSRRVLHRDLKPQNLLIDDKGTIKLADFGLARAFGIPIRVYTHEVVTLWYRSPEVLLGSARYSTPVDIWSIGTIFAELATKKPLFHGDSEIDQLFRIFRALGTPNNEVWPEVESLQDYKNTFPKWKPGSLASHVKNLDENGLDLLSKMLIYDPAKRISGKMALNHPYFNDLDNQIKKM
Chain of Cyclin-dependent kinase 1/cyclin B1 (P14635 whole entry, further chain): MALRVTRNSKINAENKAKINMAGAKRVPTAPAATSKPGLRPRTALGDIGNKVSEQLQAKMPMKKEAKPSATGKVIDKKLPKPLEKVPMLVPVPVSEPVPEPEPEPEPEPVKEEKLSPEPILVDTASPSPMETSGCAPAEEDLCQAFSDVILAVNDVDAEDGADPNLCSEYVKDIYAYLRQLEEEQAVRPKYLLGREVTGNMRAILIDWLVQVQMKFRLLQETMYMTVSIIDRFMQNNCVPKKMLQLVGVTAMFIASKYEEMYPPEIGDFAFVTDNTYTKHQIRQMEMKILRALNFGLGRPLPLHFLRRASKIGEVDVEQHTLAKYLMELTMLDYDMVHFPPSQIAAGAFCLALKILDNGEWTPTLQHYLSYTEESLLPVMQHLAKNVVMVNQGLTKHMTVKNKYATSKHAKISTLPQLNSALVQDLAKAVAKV

[18] = molecular target: cGMP-dependent protein kinase 2 (Homo sapiens, UniProt Q13237); assay: Inhibition of recombinant full-length human PRKG2 using KKLRRTLSFAEPG as substrate incubated for 40 mins in presence of [gamma33P]ATP by radiometric scintillation counting analysis
[19] = molecular target: Myotonin-protein kinase (Homo sapiens, UniProt Q09013); assay: Inhibition of recombinant human DMPK (1 to 549 residues) using KKSRGDYMTMQIG as substrate after 40 mins in presence of [gamma-33ATP] by radiometric scintillation counting analysis
[20] = Inhibition of activated recombinant human TEC F514V mutant (174 to end residues) using EFPIYDFLPAKKK as substrate incubated for 40 mins in presence of [gamma33P]ATP by radiometric scintillation counting analysis
[21] = molecular target: Tyrosine-protein kinase ABL1 (Homo sapiens, UniProt P00519); assay: Inhibition of human recombinant ABL1 (27 to end residues) using EAIYAAPFAKKK as substrate incubated for 40 mins in presence of [gamma-33P]ATP by radiometric scintillation counting analysis
[22] = molecular target: Macrophage colony-stimulating factor 1 receptor (Homo sapiens, UniProt P07333); assay: Inhibition of recombinant human FMS (538 to end residues) using KKKSPGEYVNIEF as substrate after 40 mins in presence of [gamma-33ATP] by radiometric scintillation counting analysis
[23] = molecular target: Protein kinase C gamma type (Homo sapiens, UniProt P05129); assay: Inhibition of recombinant full-length human PKCgamma using histone H1 as substrate incubated for 40 mins in presence of [gamma33P]ATP by radiometric scintillation counting analysis
[24] = molecular target: Mitogen-activated protein kinase kinase kinase 3 (Homo sapiens, UniProt Q99759); assay: Inhibition of recombinant full length human MEKK3 using MBP as substrate incubated for 120 mins in presence of [gamma-33ATP by radiometric scintillation counting analysis
[25] = Half life in human liver microsomes measured upto 45 mins in presence of NADPH by LC-MS analysis; type: ADME, Microsome
[26] = molecular target: FKBP12A/mTOR (Homo sapiens, UniProt P42345+P62942); assay: Inhibition of recombinant full length human mTOR/FKBP12 measured after 40 mins in presence of [gamma33P]ATP by radiometric scintillation counting analysis; type: protein-complex assay
[27] = molecular target: Serine/threonine-protein kinase N1 (Homo sapiens, UniProt Q16512, V901I); assay: Inhibition of recombinant human PRK1 V901I (498 to end residues) using KKLNRTLSFAEPG as substrate incubated for 40 mins in presence of [gamma33P]ATP by radiometric scintillation counting analysis
Chain of Serine/threonine-protein kinase N1 (Q16512 2-942 V901I limits assumed): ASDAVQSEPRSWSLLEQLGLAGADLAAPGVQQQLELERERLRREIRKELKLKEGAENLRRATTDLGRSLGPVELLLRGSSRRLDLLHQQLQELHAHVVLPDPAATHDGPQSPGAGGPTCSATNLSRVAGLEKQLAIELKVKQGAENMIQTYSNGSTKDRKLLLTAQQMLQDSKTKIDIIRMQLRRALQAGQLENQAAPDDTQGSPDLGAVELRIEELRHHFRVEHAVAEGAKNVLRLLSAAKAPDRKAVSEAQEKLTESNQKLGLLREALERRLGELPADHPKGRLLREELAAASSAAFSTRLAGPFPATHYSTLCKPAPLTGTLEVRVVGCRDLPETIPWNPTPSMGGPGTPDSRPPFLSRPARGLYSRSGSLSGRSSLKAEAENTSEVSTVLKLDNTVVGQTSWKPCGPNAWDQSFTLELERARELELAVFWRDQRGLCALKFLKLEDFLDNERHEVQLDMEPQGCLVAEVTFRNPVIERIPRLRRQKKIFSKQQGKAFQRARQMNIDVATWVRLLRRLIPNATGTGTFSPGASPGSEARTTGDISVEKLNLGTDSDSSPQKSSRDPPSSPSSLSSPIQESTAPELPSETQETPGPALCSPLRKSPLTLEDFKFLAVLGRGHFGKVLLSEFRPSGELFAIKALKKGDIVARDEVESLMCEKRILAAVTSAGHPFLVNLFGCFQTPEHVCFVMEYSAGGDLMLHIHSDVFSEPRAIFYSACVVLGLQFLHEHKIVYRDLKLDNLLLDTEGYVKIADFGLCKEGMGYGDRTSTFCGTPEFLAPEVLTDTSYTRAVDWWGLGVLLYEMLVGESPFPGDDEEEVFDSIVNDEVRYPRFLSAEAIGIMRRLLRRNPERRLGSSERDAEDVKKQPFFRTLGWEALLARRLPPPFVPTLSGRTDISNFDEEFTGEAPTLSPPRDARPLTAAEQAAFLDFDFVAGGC

With `CN(C)c1ccc(C(=O)Nc2cccc(NC(=O)COc3ccc4c(=O)ccoc4c3)c2)cc1` the IC50 [1] was > 10 µM, the IC50 [2] was > 10 µM and the logD at 48 h [3] was 2.65. The IC50 [4] was > 10 µM, the IC50 [5] was 1.07 µM and the IC50 [6] was > 10 µM. The IC50 [7] was > 10 µM, the IC50 [8] was > 10 µM and the IC50 [9] was > 10 µM. The IC50 [10] was > 10 µM, the IC50 [11] was 0.66 µM and the IC50 [12] was > 10 µM. For the same compound, the IC50 [13] was > 10 µM, the IC50 [14] was > 10 µM and the IC50 [15] was > 10 µM. For the same compound, the IC50 [16] was > 10 µM, the IC50 [17] was > 10 µM and the IC50 [18] was > 10 µM. The IC50 [19] was > 10 µM, the IC50 [20] was > 10 µM and the IC50 [21] was > 10 µM. For the same compound, the IC50 [22] was > 10 µM, the IC50 [23] was > 10 µM and the IC50 [24] was > 10 µM. The half-life [25] was 8.05 min, the IC50 [26] was > 10 µM and the IC50 [27] was > 10 µM.
